Results published in patent publication US20250129070A1, “BIFUNCTIONAL ANDROGEN RECEPTOR COMPOUNDS” (priority 2023, published 2025).

Legend:
[1] = test system: AR / CBP ternary complex; assay: Ternary complex formation assay (sandwich ELISA, AR capture / CBP detection) in VCaP cell lysates; type: cell-based; conditions: 1.5 hours treatment, sandwich ELISA (AR capture, CBP or p300 detection)
Procedure, shortened: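 VCaP cells (50K/well, 5% charcoal-stripped FBS, ≥3 days) treated with bifunctional compound for 1.5 h, then lysed 30 min at 4 °C. AR captured on anti-AR (AR 441) plates; bound CBP or p300 detected by rabbit mAb plus HRP secondary. QuantaRed chemifluorescence read at ex 570/em 585, immediately and at 5 and 15 min.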

[2] = test system: VCaP cells; assay: VCaP growth inhibition assay; type: cell-based; conditions: 30 pM R1881, 9 days, CTG
Procedure, shortened: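 VCaP cells in phenol red-free DMEM/5% CSS, pre-incubated 72 h, then stimulated with R1881 (final 30 pM) and treated with 1:5 serial dilutions (final 100 nM to 10 fM) for 9 days at 37 °C. Viability by CellTiter-Glo luminescence; IC50 from 4-parameter logistic fit of RLU vs concentration.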

Compound	EC50 [1] [nM]	IC50 [2] [nM]
CC(=O)N1CCc2c(c(N3CCCc4ccccc43)nn2C2CCN(CC3CCN(c4ncc(C(=O)NC5C(C)(C)C(Oc6ccc(C#N)c(Cl)c6)C5(C)C)cn4)CC3)CC2)C1 (stereo not shown) [Compound 158, 2-[4-[[4-[5-acetyl-3-(3,4-dihydro-2H-quinolin-1-yl)-6,7-dihydro-4H-pyrazolo[4,3-c]pyridin-1-yl]-1-piperidyl]methyl]-1-piperidyl]-N-[3-(3-chloro-4-cyano-phenoxy)-2,2,4,4-tetramethyl-cyclobutyl]pyrimidine-5-carboxamide]	1 to 10	≤ 0.1
COc1cc(OC2C(C)(C)C(NC(=O)c3ccc(N4CC[C@@H](N5CCC(n6nc(N7CCCc8cc(-c9cnn(C)c9)c(C(F)F)cc87)c7c6CCN(C(C)=O)C7)CC5)C4)cc3)C2(C)C)ccc1C#N (stereo partly drawn) [Compound 337, 4-[(3R)-3-[4-[5-acetyl-3-[7-(difluoromethyl)-6-(1-methylpyrazol-4-yl)-3,4-dihydro-2H-quinolin-1-yl]-6,7-dihydro-4H-pyrazolo[4,3-c]pyridin-1-yl]-1-piperidyl]pyrrolidin-1-yl]-N-[3-(4-cyano-3-methoxy-phenoxy)-2,2,4,4-tetramethyl-cyclobutyl]benzamide]	< 1	0.1 to 1
CC(=O)N1CCc2c(c(-c3cccc4cc(-c5cnn(CCC6CC7(C6)CN(c6ncc(C(=O)NC8C(C)(C)C(Oc9ccc(C#N)c(Cl)c9)C8(C)C)cn6)C7)c5)ncc34)nn2C2CCOCC2)C1 (stereo not shown) [Compound 225, 2-[6-[2-[4-[8-(5-acetyl-1-tetrahydropyran-4-yl-6,7-dihydro-4H-pyrazolo[4,3-c]pyridin-3-yl)-3-isoquinolyl]pyrazol-1-yl]ethyl]-2-azaspiro[3.3]heptan-2-yl]-N-[3-(3-chloro-4-cyano-phenoxy)-2,2,4,4-tetramethyl-cyclobutyl]pyrimidine-5-carboxamide]	< 1	0.1 to 1
COc1cc(OC2C(C)(C)C(NC(=O)c3ccc(N4CCN(C5CN(c6ccc(-c7cc8c(cn7)N(c7nn(C9CCOCC9)c9c7CN(C(C)=O)CC9)CCC8)cn6)C5)CC4)cc3)C2(C)C)ccc1C#N (stereo not shown) [Compound 324, 4-[4-[1-[5-[1-(5-acetyl-1-tetrahydropyran-4-yl-6,7-dihydro-4H-pyrazolo[4,3-c]pyridin-3-yl)-3,4-dihydro-2H-1,7-naphthyridin-6-yl]-2-pyridyl]azetidin-3-yl]piperazin-1-yl]-N-[3-(4-cyano-3-methoxy-phenoxy)-2,2,4,4-tetramethyl-cyclobutyl]benzamide]	< 1	≤ 0.1
COc1cc(OC2C(C)(C)C(NC(=O)c3ccc(N4CCN(C5CCN(c6ccc(-c7cc8c(cc7C(F)F)N(c7nn(C9CCOCC9)c9c7CN(C(C)=O)CC9)CCC8)cn6)CC5)CC4)cc3)C2(C)C)ccc1C#N (stereo not shown) [Compound 325, 4-[4-[1-[5-[1-(5-acetyl-1-tetrahydropyran-4-yl-6,7-dihydro-4H-pyrazolo[4,3-c]pyridin-3-yl)-7-(difluoromethyl)-3,4-dihydro-2H-quinolin-6-yl]-2-pyridyl]-4-piperidyl]piperazin-1-yl]-N-[3-(4-cyano-3-methoxy-phenoxy)-2,2,4,4-tetramethyl-cyclobutyl]benzamide]	< 1	0.1 to 1

Continued, values first:

EC50 [1] [nM]	IC50 [2] [nM]	Compound
< 1	≤ 0.1	COc1cc(OC2C(C)(C)C(NC(=O)c3ccc(N4CCC5(CC(N6CCC(n7nc(N8CCCc9cc(-c%10cnn(C)c%10)c(C(F)F)cc98)c8c7CCN(C(C)=O)C8)CC6)C5)C4)cc3)C2(C)C)ccc1C#N (stereo not shown) [Compound 347, 4-[2-[4-[5-acetyl-3-[7-(difluoromethyl)-6-(1-methylpyrazol-4-yl)-3,4-dihydro-2H-quinolin-1-yl]-6,7-dihydro-4H-pyrazolo[4,3-c]pyridin-1-yl]-1-piperidyl]-6-azaspiro[3.4]octan-6-yl]-N-[3-(4-cyano-3-methoxy-phenoxy)-2,2,4,4-tetramethyl-cyclobutyl]benzamide]
< 1	≤ 0.1	COc1cc(OC2C(C)(C)C(NC(=O)c3ccc(N4CCC(CN5CCC(n6nc(N7CCCc8cc(-c9cnn(C)c9)c(C(F)F)cc87)c7c6CCN(C(C)=O)C7)CC5)C(OC)C4)cc3)C2(C)C)ccc1C#N (stereo not shown) [Compound 332, 4-[4-[[4-[5-acetyl-3-[7-(difluoromethyl)-6-(1-methylpyrazol-4-yl)-3,4-dihydro-2H-quinolin-1-yl]-6,7-dihydro-4H-pyrazolo[4,3-c]pyridin-1-yl]-1-piperidyl]methyl]-3-methoxy-1-piperidyl]-N-[3-(4-cyano-3-methoxy-phenoxy)-2,2,4,4-tetramethyl-cyclobutyl]benzamide]
< 1	≤ 0.1	COc1cc(OC2C(C)(C)C(NC(=O)c3ccc(N4CCN(C5CCN(c6ccc(-c7cc8cccc(-c9nn(C%10CCOCC%10)c%10c9CN(C(C)=O)CC%10)c8cn7)cn6)CC5)CC4)cc3)C2(C)C)ccc1C#N (stereo not shown) [Compound 321, 4-[4-[1-[5-[8-(5-acetyl-1-tetrahydropyran-4-yl-6,7-dihydro-4H-pyrazolo[4,3-c]pyridin-3-yl)-3-isoquinolyl]-2-pyridyl]-4-piperidyl]piperazin-1-yl]-N-[3-(4-cyano-3-methoxy-phenoxy)-2,2,4,4-tetramethyl-cyclobutyl]benzamide]
< 1	1 to 100	COc1cc(OC2C(C)(C)C(NC(=O)c3ccc(N4CC[C@H](N5CCC(n6nc(N7CCCc8cc(-c9cnn(C)c9)c(C(F)F)cc87)c7c6CCN(C(C)=O)C7)CC5)C4)cc3)C2(C)C)ccc1C#N (stereo partly drawn) [Compound 336, 4-[(3S)-3-[4-[5-acetyl-3-[7-(difluoromethyl)-6-(1-methylpyrazol-4-yl)-3,4-dihydro-2H-quinolin-1-yl]-6,7-dihydro-4H-pyrazolo[4,3-c]pyridin-1-yl]-1-piperidyl]pyrrolidin-1-yl]-N-[3-(4-cyano-3-methoxy-phenoxy)-2,2,4,4-tetramethyl-cyclobutyl]benzamide]
< 1	≤ 0.1	CC(=O)N1CCc2c(c(N3CCCc4cc(-c5cnn(C)c5)c(C(F)F)cc43)nn2C2CCN(C3CCC4(CC3)CN(c3ncc(C(=O)NC5C(C)(C)C(Oc6ccc(C#N)c(Cl)c6)C5(C)C)cn3)C4)CC2)C1 (stereo not shown) [Compound 274, 2-[7-[4-[5-acetyl-3-[7-(difluoromethyl)-6-(1-methylpyrazol-4-yl)-3,4-dihydro-2H-quinolin-1-yl]-6,7-dihydro-4H-pyrazolo[4,3-c]pyridin-1-yl]-1-piperidyl]-2-azaspiro[3.5]nonan-2-yl]-N-[3-(3-chloro-4-cyano-phenoxy)-2,2,4,4-tetramethyl-cyclobutyl]pyrimidine-5-carboxamide]
< 1	0.1 to 1	CC(=O)N1CCc2c(c(-c3cccc4cc(-c5cnn(CC6CC7(C6)CN(c6ncc(C(=O)NC8C(C)(C)C(Oc9ccc(C#N)c(Cl)c9)C8(C)C)cn6)C7)c5)ncc34)nn2C)C1 (stereo not shown) [Compound 224, 2-[6-[[4-[8-(5-acetyl-1-methyl-6,7-dihydro-4H-pyrazolo[4,3-c]pyridin-3-yl)-3-isoquinolyl]pyrazol-1-yl]methyl]-2-azaspiro[3.3]heptan-2-yl]-N-[3-(3-chloro-4-cyano-phenoxy)-2,2,4,4-tetramethyl-cyclobutyl]pyrimidine-5-carboxamide]
